By MIC is commonly meant the least concentration at which growth counts as inhibited. Low values mean greater potency, high ones weaker potency.

Structures are written as SMILES. Values after ≈ are worked out from the molar mass of the structure shown.

In this experiment the test system is Mycobacterium tuberculosis. Description: Antimycobacterial activity against multi drug-resistant Mycobacterium tuberculosis. In kind it is functional.
With `NC(=O)c1cnccn1` [PYRAZINAMIDE], the lowest concentration to inhibit growth (MIC) was 50 µg/mL (≈ 406 µM).

In the case of `Fc1ccc2[nH]c3c(c2c1)SC(c1ccccc1Cl)C3` (stereo not given), the MIC was found to be 1.56 µg/mL (≈ 5.14 µM).

Regarding `CC(C)c1ccc(C2Cc3[nH]c4ccc(F)cc4c3S2)cc1` (stereo not given), the lowest concentration to inhibit growth (MIC) was 0.4 µg/mL (≈ 1.28 µM).

Molecule `Fc1ccc(C2Cc3[nH]c4ccc(Cl)cc4c3S2)cc1` (stereo not given) had an MIC of 0.78 µg/mL (≈ 2.57 µM).

`CC[C@@H](CO)NCCN[C@@H](CC)CO` [ETHAMBUTOL] had an MIC of 12.5 µg/mL (≈ 61.2 µM).

`CC(C)c1ccc(C2Cc3[nH]c4ccccc4c3S2)cc1` (stereo not given) came in with an MIC of 0.4 µg/mL (≈ 1.36 µM).

As for `Clc1ccc(C2Cc3[nH]c4ccccc4c3S2)c(Cl)c1` (stereo not given), the MIC is 0.78 µg/mL (≈ 2.44 µM).

Consider `Fc1ccc2[nH]c3c(c2c1)SC(c1ccc(Cl)cc1Cl)C3` (stereo not given), for which the MIC worked out at 0.4 µg/mL (≈ 1.18 µM).

`O=[N+]([O-])c1cccc(C2Cc3[nH]c4ccccc4c3S2)c1` (stereo not given) registered an MIC of 0.78 µg/mL (≈ 2.63 µM).

As to `Clc1ccc(C2Cc3[nH]c4ccc(Cl)cc4c3S2)c(Cl)c1` (stereo not given), the MIC is 0.4 µg/mL (≈ 1.13 µM).

As to `Cc1ccc(C2Cc3[nH]c4ccc(F)cc4c3S2)cc1` (stereo not given), the MIC was found to be 1.56 µg/mL (≈ 5.51 µM).

In turn, `CC(C)c1ccc(C2Cc3[nH]c4ccc(Cl)cc4c3S2)cc1` (stereo not given) came in with an MIC of 0.78 µg/mL (≈ 2.38 µM).

For `Cc1ccc(C2Cc3[nH]c4ccc(Cl)cc4c3S2)cc1` (stereo not given), the MIC amounted to 6.25 µg/mL (≈ 20.8 µM).

In turn, `Clc1ccc2[nH]c3c(c2c1)SC(c1ccccc1Cl)C3` (stereo not given) came in with an MIC of 1.56 µg/mL (≈ 4.87 µM).

Molecule `NNC(=O)c1ccncc1` [ISONIAZID] showed an MIC of 1.56 µg/mL (≈ 11.4 µM).

Turning to `Brc1ccccc1C1Cc2[nH]c3ccccc3c2S1` (stereo not given), the MIC was 3.13 µg/mL (≈ 9.48 µM).

`Fc1ccc2[nH]c3c(c2c1)SC(c1ccccc1)C3` (stereo not given) displayed an MIC of 12.5 µg/mL (≈ 46.4 µM).

The molecule `CO[C@H]1/C=C/O[C@@]2(C)Oc3c(C)c(O)c4c(O)c(c(/C=N/N5CCN(C)CC5)c(O)c4c3C2=O)NC(=O)/C(C)=C\C=C\[C@H](C)[C@H](O)[C@@H](C)[C@@H](O)[C@@H](C)[C@H](OC(C)=O)[C@@H]1C` [RIFAMPIN] returned an MIC of 3.13 µg/mL (≈ 3.8 µM).

Take `Fc1ccc2[nH]c3c(c2c1)SC(c1ccc(Cl)cc1)C3` (stereo not given): the MIC came out at 1.56 µg/mL (≈ 5.14 µM).

In turn, `Cc1ccc(C2Cc3[nH]c4ccccc4c3S2)cc1` (stereo not given) had an MIC of 12.5 µg/mL (≈ 47.1 µM).

For the origin of these results see ChEMBL document CHEMBL1151911, “A microwave-assisted facile regioselective Fischer indole synthesis and antitubercular evaluation of novel 2-aryl-3,4-dihydro-2H-thieno[3,2-b]indoles” (2009).
